How the values were obtained:
[1] = system: newly synthesized proteins; test: Puromycin labeling of newly synthesized proteins; type: cell-based; conditions: 100 nM
[2] = system: TM00298 (human prostate cancer cells); test: In vivo tumor growth inhibition, TM00298 PDX; design: species or system NSG mice; conditions: both 3 mg/kg and 30 mg/kg twice daily oral
Description: TM00298 (human prostate cancer cells): Male 6-8 weeks old NSG mice were inoculated subcutaneously with 1 mm^3 TM00298 tumor fragments. The treatments were started when the mean tumor size reached approximately 123 mm^3 and continued until end of study by twice daily oral gavage dosing of HC-7366 at listed doses (vehicle, 3 mg/kg HC-7366, or 30 mg/kg HC-7366, FIG. 15).
(§1) [formula] • 2.2.2 Tumor Measurements: The measurement of tumor size was conducted three times weekly with a caliper and recorded. The tumor volume (mm^3) was estimated using the formula: TV=a×b^2/2, where “a” and “b” is long and short diameters of a tumor, respectively. Tumor volume was calculated using the formula [tumor volume (mm^3)=π/6×length×width^2).
(§2) Regression was calculated using the formula=100×ΔT/T initial, if ΔT<0. Animals with 0 mm^3 tumor volume (no measurable tumor) for three consecutive measurements were considered as complete responders and animals with 50% tumor regressions were partial responders.

[3] = system: HIF2α and GLUT1 in 786-O tumors; test: Tumor IHC, 786-O tumors (DC101 combination study); type: in vivo, BALB/c nude mice; conditions: HC-7366 2 mg/kg twice daily, DC101 15 mg/kg twice a week
Description: 786-O (human renal cell carcinoma cancer cells): Female 6-8 weeks old BALB/c nude mice were inoculated subcutaneously on the right flank with 786-O tumor cells (5×10^6) in 0.1 ml of RPMI1640 medium without serum for tumor development. The treatments were started when the mean tumor size reached approximately 189 mm^3 after three weeks post inoculation and continued until end of study by twice daily oral gavage dosing of HC-7366 at listed doses (vehicle or 2 mg/kg HC-7366, FIGS. 52-54). For the DC101 combination study, DC101 (murine monoclonal anti-VEGFR2 antibody) was dosed at 15 mg/kg twice a week by intraperitoneal injection.
Immunohistochemical analysis was carried out on tumors that were collected at the end of the study described in Example 6. […]
Slides were imaged with Aperio Versa 200 (Leica Biosystems) whole-slide scanner using 10×/0.32NA objective, and the data were analyzed using custom-written macros in ImageJ/FIJI (NIH). Briefly, 150 μm of outer edges of the tumor sections and necrotic regions (determined by lack of 4′,6-diamidino-2-phenylindole (DAPI) signal or presence of condensed DNA) were eliminated from the analysis. […] Scans of immune-staining were processed to remove background, then total intensity value above appropriate threshold levels was measured and normalized to tissue area. […]

[4] = system: MV4-11 (human AML cancer cells); test: In vivo tumor growth inhibition, MV4-11 xenograft; design: species or system BALB/c nude mice
Description: MV4-11 (human AML cancer cells): Female 6-8 weeks old BALB/c nude mice were inoculated subcutaneously on the right flank with MV4-11 tumor cells (1×10^7) in RPMI 1640 without serum for tumor development. The treatments were started when the mean tumor size reached approximately 150 mm^3 at Day 13 after cell inoculation and continued until end of study by twice daily oral gavage dosing of HC-7366 at listed doses (vehicle, 0.3 mg/kg HC-7366, 1 mg/kg HC-7366, 3 mg/kg HC-7366, 10 mg/kg HC-7366, or 30 mg/kg HC-7366, FIG. 20). For venetoclax combination study, venetoclax was dissolved in 0.5% carboxymethylcellulose (CMC) and co-administered at 50 mg/kg dose once daily (see Example 8).
as §1, §2
MV4-11 tumors were collected at the end of the venetoclax combination study described in Example 6. Tumor growth curves are provided of MV4-11 tumors treated with single agent HC-7366 and venetoclax or combination (FIG. 43).

[5] = system: HCT116 (human colorectal cancer cells); test: In vivo tumor growth inhibition, HCT116 xenograft; design: species or system Athymic Nude-Foxn1nu mice
Description: HCT116 (human colorectal cancer cells): Female 7-8 weeks old Athymic Nude-Foxn1nu mice were inoculated subcutaneously on the right flank with HCT116 tumor cells (5 ×10^6) in 0.1 ml of McCoy's 5a medium without serum for tumor development. Single agent HC-7366 was dosed at 3 or 30 mg/kg (twice daily, orally), Trametinib at 1 mg/kg (once a day, orally) and Alpelisib at 50 mg/kg (once a day, orally). HC-7366 was combined with either Trametinib or Alpelisib. The treatments were started when the mean tumor size reached approximately 270 mm^3 at Day 18 post inoculation and continued until end of study (FIGS. 63-64).
as §1, §2

For CNC(=O)c1ncn2cc(-c3c(F)ccc(NS(=O)(=O)c4cc(Cl)cnc4OC)c3F)ncc12 [HC-7366, 6-(3-((5-chloro-2-methoxypyridine)-3-sulfonamido)-2,6-difluorophenyl)-N-methylimidazo[1,5-a]pyrazine-1-carboxamide], the “puromycin labeling of newly synthesized proteins” value [1] was “potently reduced”, the tumor growth inhibition [2] was ~70% and the “GLUT1 levels by IHC” value [3] was “significantly reduced”. For the same molecule, the “HIF2α by IHC” value ([3]; single agents and combination) was “significantly decreased”, the TGI ([4]; 30 mg/kg twice daily oral) was 45% and the TGI ([4]; venetoclax combination study, HC-7366 as a single agent, dose not stated) was 34%. For the same molecule, the TGI ([5]; HC-7366 3 mg/kg twice daily, alpelisib study (FIG. 63), trend) was ~38%, the “effect on tumor growth” value ([5]; HC-7366 30 mg/kg twice daily, alpelisib study (FIG. 63)) was “did not reduce tumor growth” and the efficacy ([5]; HC-7366 at either 3 or 30 mg/kg, trametinib study (FIG. 64)) was “did not show efficacy”.
